Test results as given in patent US20220023181A1, “PEROXIDE-LESS BIOPHOTONIC COMPOSITIONS AND METHODS” (KLOX TECHNOLOGIES LIMITED, priority 2015, published 2022).

Assay: Dilution assay with ROS test assay (liposomes + fluorogenic α-tocopherol probe)
Details: Example 5 first round; illumination 5 or 9 min per sample
Experimental: For the dilution assay, an amount of a given gel composition is taken and mixed into a volume of PBS in order to dilute the gel. For example, to make a 10 mL solution ten times diluted, a 1 gram sample of the particular gel is mixed into 9 mL of PBS. Thereafter, depending on the make-up of the sample to be tested, an amount of a particular compound, for example urea peroxide (UP) or a particular salt, could be added in order to either boost an amount of the particular compound that was already in the sample to be tested or to test the effect of adding that given compound per se. With respect to adding UP in order to make test samples with various concentrations to be tested in a concomitant series of tests, an initial sample with a high concentration would be prepared from which aliquots would be taken and diluted down with PBS in order to the test samples with the various concentration of UP. In a multi-well plate, the given diluted sample are mixed with 19.1 μL of the liposome solution (to give a final liposome concentration of 15.4 mg/mL in the test sample) in order to provide a 2 mm thickness of the resulting paste-like mixture, this thickness being equivalent to a thickness of gel that would be spread on a patient or used in an in vitro assay. Also present in the sample-liposome mixture is a quantity of the chemical probe that is used in the reactive oxygen species (ROS) test assay (362.9 μL of the of the diluted gel (i.e., the given gel sample that is to be tested) is mixed with 19.1 μL of liposome-probe, as including the chemical probe in the sample-liposome mixture is to ensure that any ROS species will be afforded a maximal opportunity to interact with the probe and thus be detectable as having been generated as a result of any interaction that may occur in the gel composition upon it becoming activated. […] After the illumination is completed, a 100 μL to 300 μL aliquot of the sample-liposome transferred to a 96-well plate for conducting the ROS test (as further described in (iii) below). For the test samples, stock solutions of the samples were made and diluted such that direct comparisons could be made between the samples (e.g., for the measurement of reactive oxygen species).
The ROS test assay utilized in the experimental protocols of the Examples of the present disclosure is that which is described in Krumova et al. “How Lipid Unsaturation, Peroxyl Radical Partitioning, and Chromanol Lipophilic Tail Affect the Antioxidant Activity of a-Tocopherol: direct Visualization via High-Throughput Fluorescence Studies Conducted with Fluorogenic a-Tocopherol Analogues” (J. Am. Chem. Soc. 2012, vol. 134, pages 10102-10113). The assay utilizes highly sensitive fluorogenic α-tocopherol (TOH) analogues that undergo a 30-fold fluorescence intensity enhancement upon their reaction with peroxyl radicals that are generated due to the oxidation of the liposome membrane with ROS species that may be present in the reaction mixture. The assay utilizes a high-throughput microplate reader that relies on the high sensitivity of the TOH probes and provides a quantitative treatment of the temporal evolution of the fluorescence intensity thereby allowing for kinetic information to be obtained under the conditions being analyzed. The TOH analogues are two-segment receptor-reporter probes that consist of a chromanol moiety coupled to the meso position of a BODIPY fluorophore, either by an ester linker (the probe being called H2B-TOH) or via a methylene linker (the probe being called H2B-PMHC). The chromanol moiety quenches the emission of the fluorophore until it is oxidized following reaction with peroxyl radicals. […]
With NC(N)=O.OO [S 20, urea peroxide] the ROS was 0.34 µM. For NC(N)=O.OO [S 21, urea peroxide], the ROS was 0.39 µM. Work on NC(N)=O.OO [S 22, urea peroxide] yielded an ROS of 0.49 µM. In the case of NC(N)=O.OO [S 23, urea peroxide], the ROS was 0.46 µM. For NC(N)=O.OO [S 24, urea peroxide], the ROS was 0.51 µM. With NC(N)=O.OO [S 25, urea peroxide] the ROS was 0.56 µM. NC(N)=O.OO [S 26, urea peroxide] showed an ROS of 0.72 µM. With NC(N)=O.OO [S 27, urea peroxide] the ROS was 0.75 µM. Work on NC(N)=O.OO [S 28, urea peroxide] yielded an ROS of 0.87 µM. In the case of NC(N)=O.OO [S 29, urea peroxide], the ROS was 0.86 µM.
